From patent US12102709B2, “Anti-obesity agent, anti-dementia agent, deodorant, anti-aging agent, anti-glycation agent, anti-type I allergy agent, hypotensive agent, flavor improving agent, muscle enhancing agent, and bone metabolism improving agent” (Mitsui Sugar Co., Ltd., priority 2018, dated 2024)

System: C2C12 cells
Assay: Myotube cell differentiation promotion test (Fusion index)
Type: cell-based, mouse
Details: 0.5 μM LDN-193189 with DMSO; 3 days; Comparative Example i2-2 55.1 ± 0.09
Procedure: (Cells) • Mouse Myoblasts C2C12 Cells (ATCC, CRL-1772) (Culture Mediums) • Growth culture medium composition: DMEM culture medium, 10% FBS, antibiotics added • Differentiation culture medium composition: DMEM culture medium, 0.5% FBS, antibiotics added C2C12 cells were cultivated using a growth culture medium in a T-75 flask (75 cm^2 U-shaped canted neck cell culture flask, commercially available from Corning Co., Ltd.). The T-75 flask was put into a CO2 incubator (5% CO2, 37° C., wet) and the C2C12 cells were cultured. The culture medium was replaced every other day, and when an 80% confluence was reached, the cells were collected and used for the test. Here, in the following test, regarding a well plate for culturing C2C12 cells, a plate coated with gelatin according to the following coating method was used. Pre-cultured cells were seeded in a 96-well plate for fluorescence observation at 4×10^4 cells/0.1 mL/well using a growth culture medium. The well plate was cultured in a CO2 incubator (5% CO2, 37° C.) for 2 days. […] After the culture medium was replaced, culturing was performed for 3 days, and after fixing, immunostaining with anti-myosin heavy chain (MHC) antibodies was performed. […] A total number of Hoechst positive nuclei and the number of MHC-positive nuclei were measured, and the Fusion index (% of MHC+nuclei) was calculated according to the following formula. […]

## c1ccc2c(-c3cnn4cc(-c5ccc(N6CCNCC6)cc5)cnc34)ccnc2c1 [Positive Control i2, 4-(6-(4-(piperazine-1-yl)phenyl)pyrazolo[1,5-a]pyrimidin-3-yl)quinoline]
  Fusion index (% of MHC + nuclei): 63.7 ± 0.88 %
